Laboratory results taken from patent US7465804B2, “Compounds, pharmaceutical compositions and methods for their use in treating metabolic disorders” (Amgen Inc., priority 2005, dated 2008).

How the values were obtained:
[1] = biological target: T1, human GPR40 (Homo sapiens, UniProt O14842); assay: Cell based aequorin assay using human GPR40; conditions: CHO cells stably transfected with GPR40 and aequorin; 0.01% HSA; aequorin luminescence; read-out: Relative EC50
T1 construct: host or cells: CHO cells
Experimental: Cell-based aequorin assays were employed to characterize the modulatory activity of compounds on the GPR40 signaling pathway. In an exemplary assay, CHO cells were stably transfected with both GPR40 and Aequorin (Euroscreen). Cells were detached from the tissue culture dish with 2 mL of trypsin (0.25% (w/v)). Trypsinization was halted with 28 mL of Hanks Buffered Salt Solution containing 20 mM Hepes (H/HBSS) and 0.01% fatty acid-free human serum albumin (HSA). Coelantrazine was added to 1 ug/mL, and the cells were incubated for 2 hours at room temperature. Compounds were dissolved in DMSO for preparation of 10 mM stock solutions. Compounds were diluted in H/HBSS containing either 0.01% HSA. Serial dilutions of the test compounds were prepared to determine dose response.
Aequorin luminescence measurements were made using an EG&G Berthold 96-well luminometer, and the response was measured over a 20 second interval after cells and compounds were mixed. The maximum relative light units was plotted to determine dose response. The EC50 (effective concentration to reach 50% maximal response) was determined from the dose response plot.
Table 1 presents representative data (EC50 values) obtained for exemplary compounds of the invention for the relative activation of human GPR40. […]

[2] = test system: islet cells; assay: Insulin secretion assay in human islet cells; format: cell-based; conditions: human islet cells from cadaveric donors; KRBH with 11.2 mM glucose; insulin by SPA; read-out: EC50, stimulation of insulin secretion from islet cells
Experimental: Human islets were isolated from cadaveric donors. Islets were treated with trypsin (0.25% (w/v) and cells were seeded in 96-well plates containing 3,000 cells per well. Cells were cultured in Roswell Park Memorial Institute (RMPI) media containing 10% fetal bovine serum.
For determination of insulin secretion, media was removed from islet cells and replaced with Krebs-Ringer bicarbonate buffer containing 10 mM HEPES (KRBH) and 2 mM glucose. After one hour incubation, media was replaced with KRBH conaining 11.2 mM glucose and test compounds. Insulin released into the medium from the islet cells was measured using scintillation proximity assay (SPA).

T1 sequence (O14842 whole entry): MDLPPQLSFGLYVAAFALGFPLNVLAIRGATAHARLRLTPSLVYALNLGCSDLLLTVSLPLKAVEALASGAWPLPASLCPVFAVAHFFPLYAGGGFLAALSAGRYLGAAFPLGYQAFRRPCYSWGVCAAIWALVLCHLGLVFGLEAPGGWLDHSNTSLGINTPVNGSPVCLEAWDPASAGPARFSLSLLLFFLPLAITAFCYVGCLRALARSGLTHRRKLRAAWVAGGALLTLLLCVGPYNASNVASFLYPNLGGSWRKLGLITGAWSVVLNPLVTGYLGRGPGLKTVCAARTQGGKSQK

EC50 [1] [nM] | EC50 [2] [nM] | SMILES
100 to 1000 | – | CCCCOc1ccc(C)cc1-c1ccc(COc2ccc([C@H](CC(=O)O)c3nccn3C)cc2)cc1
10 to 100 | < 1000 | Cc1ccc(-c2nc(C)c(COc3ccc([C@H](CC(=O)O)C(=O)N(C)C)cc3)s2)cc1 [Example 4, (S)-4-(dimethylamino)-3-(4-((4-methyl-2-p-tolylthiazol-5-yl)methoxy)phenyl)-4-oxobutanoic acid]
10 to 100 | < 1000 | Cc1cc(Cl)ccc1-c1cccc(COc2ccc([C@H](CC(=O)O)c3nccn3C)cc2)c1 [Example 9, (S)-3-[4-(4′-chloro-2′-methyl-biphenyl-3-ylmethoxy)-phenyl]-3-(1-methyl-1H-imidazol-2-yl)-propionic acid]
10 to 100 | – | CCCCOc1ccc(C)cc1-c1ccc(COc2ccc(C(CC(=O)O)c3ncco3)cc2)cc1 (centres unmarked)
100 to 1000 | – | CCOc1cccc(-c2ccc(COc3ccc([C@H](CC(=O)O)c4nccn4C)cc3)cc2)c1
10 to 100 | – | Cc1cc(Cl)ccc1-c1cccc(COc2ccc([C@H](CC(=O)O)c3nnnn3C)cc2)c1 [Example 8, (S)-3-[4-(4′-chloro-2′-methyl-biphenyl-3-ylmethoxy)-phenyl]-3-(1-methyl-1H-tetrazol-5-yl)-propionic acid]
10 to 100 | – | Cc1nc(-c2ccc(C(F)(F)F)cc2)sc1COc1ccc(C(CC(=O)O)c2ncco2)cc1 (centres unmarked)
100 to 1000 | – | Cn1ncnc1[C@@H](CC(=O)O)c1ccc(OCc2cccc(-c3ccc(C(F)(F)F)cc3)c2)cc1 [Example 5, (S)-3-(2-methyl-2H-1,2,4-triazol-3-yl)-3-[4-(4′-trifluoromethyl-biphenyl-3-ylmethoxy)-phenyl]-propionic acid]
1000 to 10000 | – | CCOc1cccc(-c2ccc(COc3ccc(C(CC(=O)O)c4ncco4)cc3)cc2)c1 (centres unmarked)
< 10 | – | Cc1c(Cl)cccc1-c1cccc(COc2ccc([C@H](CC(=O)O)c3nnnn3C)cc2)c1
100 to 1000 | – | CCOc1cccc(-c2ccc(COc3ccc([C@H](CC(=O)O)c4ncnn4C)cc3)cc2)c1
10 to 100 | – | Cc1cc(Cl)ccc1-c1cccc(COc2ccc([C@H](CC(=O)O)c3ncco3)cc2)c1
10 to 100 | – | Cc1c(Cl)cccc1-c1cccc(COc2ccc([C@H](CC(=O)O)c3nccn3C)cc2)c1
10 to 100 | – | O=C(O)CC(c1ccc(OCc2cccc(-c3ccc(C(F)(F)F)cc3)c2)cc1)c1ncco1 (centres unmarked)
1000 to 10000 | – | Cc1cc(Cl)ccc1-c1cccc(COc2ccc([C@@H](CC(=O)O)c3ncco3)cc2)c1
10 to 100 | – | Cc1cc(Cl)ccc1-c1cccc(COc2ccc([C@H](CC(=O)O)c3ncnn3C)cc2)c1 [Example 6, (S)-3-[4-(4′-chloro-2′-methyl-biphenyl-3-ylmethoxy)-phenyl]-3-(2-methyl-2H-1,2,4-triazol-3-yl)-propionic acid]

EC50 [1] [nM] | EC50 [2] [nM] | SMILES
10 to 100 | – | CCCCOc1ccc(C)cc1-c1ccc(COc2ccc([C@H](CC(=O)O)c3ncnn3C)cc2)cc1
100 to 1000 | – | Cn1ccnc1C(CC(=O)O)c1ccc(OCc2cccc(-c3ccc(C(F)(F)F)cc3)c2)cc1 (centres unmarked)
100 to 1000 | – | Cn1ccnc1C(CC(=O)O)c1ccc(OCc2cccc(Oc3ccccc3)c2)cc1 (centres unmarked)
10 to 100 | – | Cc1ccc(Cl)cc1-c1cccc(COc2ccc([C@H](CC(=O)O)c3nccn3C)cc2)c1
100 to 1000 | – | O=C(O)CC(c1ccc(OCc2cccc(Oc3ccccc3)c2)cc1)c1ncco1 (centres unmarked)
10 to 100 | – | Cc1nc(-c2ccc(C(F)(F)F)cc2)sc1COc1ccc([C@H](CC(=O)O)c2nnnn2C)cc1
100 to 1000 | – | Cc1cc(Cl)ccc1-c1cccc(COc2ccc(C(CC(=O)O)c3ncco3)cc2)c1 (centres unmarked)
10 to 100 | – | Cn1nnnc1[C@@H](CC(=O)O)c1ccc(OCc2cccc(-c3ccc(C(F)(F)F)cc3)c2)cc1 [Example 7, (S)-3-(1-methyl-1H-tetrazol-5-yl)-3-[4-(4′-trifluoromethyl-biphenyl-3-ylmethoxy)-phenyl]-propionic acid]
10 to 100 | – | CCCCOc1ccc(C)cc1-c1ccc(COc2ccc([C@H](CC(=O)O)c3nnnn3C)cc2)cc1
10 to 100 | – | CCCCOc1ccc(C)cc1-c1ccc(COc2ccc([C@H](CC(=O)O)C(=O)N(C)C)cc2)cc1
100 to 1000 | – | Cc1nc(-c2ccc(C(F)(F)F)cc2)sc1COc1ccc([C@H](CC(=O)O)c2ncnn2C)cc1
10 to 100 | – | Cc1nc(-c2ccc(C(F)(F)F)cc2)sc1COc1ccc([C@H](CC(=O)O)C(=O)N(C)C)cc1
10 to 100 | – | Cc1cc(Cl)ccc1-c1cccc(COc2ccc([C@H](CC(=O)O)C(=O)N(C)C)cc2)c1 [Example 3, (S)-3-[4-(4′-chloro-2′-methyl-biphenyl-3-ylmethoxy)-phenyl]-N,N-dimethyl-succinamic acid]
10 to 100 | – | Cc1ccc(Cl)cc1-c1cccc(COc2ccc([C@H](CC(=O)O)c3nnnn3C)cc2)c1
100 to 1000 | – | Cc1nc(-c2ccc(C(F)(F)F)cc2)sc1COc1ccc([C@H](CC(=O)O)c2nccn2C)cc1
100 to 1000 | – | CCCCOc1ccc(C)cc1-c1ccc(COc2ccc([C@@H](CC(=O)O)c3ncco3)cc2)cc1

SMILES | EC50 [1] [nM] | EC50 [2] [nM]
CCCCOc1ccc(C)cc1-c1ccc(COc2ccc([C@H](CC(=O)O)c3ncco3)cc2)cc1 [Example 10, (S)-3-[4-(5′-methyl-2′-butoxybiphenylmethoxy)phenyl]-3-(oxazol-2-yl)propanoic acid] | 10 to 100 | –
